Numbered stars: 1 amine (or outer) side, 2 acyl side, 3 side chain; on linkers, the order of the positions; unused ones are H or OH. Peptide text beside a SMILES is read from it. * marks the point of attachment. pNA = O=[N+]([O-])c1ccc(N*)cc1; Suc = O=C(CCC(=O)[*:2])[*:1]
How the values were obtained:
Type in all cases: biochemical
Conditions in all cases: 0.05M sodium phosphate buffer at pH 8 containing 10% methanol
[1] = test system: CPC-trypsin (poly(2-N-methacrylamido-2-deoxy-D-glucose)-trypsin conjugate); test: Km and kcat of enzyme-polymer conjugate, Table 1
Description: A protein polymer conjugate of poly(2-N-methacrylamido-2-deoxy-D-glucose) and trypsin was prepared by the reductive amination procedure as shown below: [drawing 23] To 20 mL of a 0.05M sodium borate solution at pH 8 was added 148 mg (3×10^-8 mole) of poly(2-N-methacrylamido-2-deoxy-D-glucose) with 30 mg (1.2×10^-6 mole) of trypsin and 10 mg ([…]) of purified sodium cyanoborohydride. The solution was placed in a shaking water bath at 60 oscillations/min at 35° C. for 48 hours. The progress of the reaction was followed by gel filtration chromatography using 0.05M sodium borate as the eluent on Sephacryl S-200 with a flow rate of 1.5 mL/min. Dialysis of the solution using Spectra Por CE 100K MWCO membrane against 2×250 mL of 0.05M sodium borate at pH 8 for 14 hours gave a 42% yield of active stabilized trypsin-polymer conjugate.
(§1) The yield of the active enzyme was determined by comparison of the relative activity of the native trypsin and the trypsin-polymer conjugate for N-succinyl-Ala-Ala-Pro-Phe p-nitroanilide as the substrate in 0.05M sodium phosphate buffer at pH 8 containing 10% methanol.

[2] = target: α-chymotrypsin (native) (Bos taurus, UniProt P00766); test: Km and kcat of enzyme, Table 1
Description: as §1
The procedure of EXAMPLE 8 (a) (i) was repeated in every essential detail except that α-chymotrypsin was used instead of trypsin.

[3] = test system: trypsin (native); test: Km and kcat of enzyme, Table 1
Description: as §1

`C[C@H](NC(=O)CCC(=O)O)C(=O)N[C@@H](C)C(=O)N1CCC[C@H]1C(=O)N[C@@H](Cc1ccccc1)C(=O)Nc1ccc([N+](=O)[O-])cc1` [N-succinyl-Ala-Ala-Pro-Phe p-nitroanilide] (Suc-AAPF-pNA) gave a Km [1] of 890 µM, a kcat [1] of 1.2 s⁻¹ and a Km [2] of 40 µM. It also gave a kcat [2] of 33 s⁻¹, a Km [3] of 760 µM and a kcat [3] of 0.9 s⁻¹.

Source: patent US5492821A, “Stabilized polyacrylic saccharide protein conjugates” (Cargill, Inc., priority 1991, dated 1996)
